Activity calls are given as the source filed them. The rule behind the calls is not given here.
Columns and labels:
[1] = tested on: Echinochloa oryzicola; test: Herbicidal activity against Echinochloa oryzicola under greenhouse condition assessed as growth inhibition at 250 g /ha measured after 13 days; format: functional, organism-based
[2] = tested on: Oryza sativa; test: Phytotoxicity against two-leaf stage Oryza sativa cv. Nihonbare (rice) planted 1 cm depth measured after […]; format: organism-based; conditions: in vivo
[3] = tested on: Echinochloa oryzicola; test: Herbicidal activity against Echinochloa oryzicola under greenhouse condition assessed as time duration of residual effect at 500 g /ha; format: functional
[4] = tested on: Pontederia vaginalis; test: Herbicidal activity against Monochoria vaginalis at 250 g /ha treated at 1.5 to 2-leaf stage measured after 26 days by outdoor concrete pot test; format: functional, organism-based
[5] = tested on: Echinochloa oryzicola; test: Pre-emergence herbicide activity against Echinochloa oryzicola under greenhouse condition measured after 14 to 20 days; format: functional
[6] = tested on: Lindernia procumbens; test: Herbicidal activity against Lindernia procumbens at 250 g /ha treated at 1 to 2-pairs of leaf stage measured after 26 days by outdoor concrete pot test; format: functional, organism-based
[7] = tested on: Schoenoplectiella juncoides; test: Herbicidal activity against Schoenoplectiella juncoides at 250 g /ha treated at 1.5 to 2.1-leaf stage measured after 26 days by outdoor concrete pot test; format: functional, organism-based
[8] = tested on: Rotala indica; test: Herbicidal activity against Rotala indica at 500 g /ha treated at 1 to 2-pairs of leaf stage measured after 26 days by outdoor concrete pot test; format: functional, organism-based
[9] = tested on: Lindernia procumbens; test: Herbicidal activity against Lindernia procumbens at 500 g /ha treated at 1 to 2-pairs of leaf stage measured after 26 days by outdoor concrete pot test; format: functional, organism-based
[10] = tested on: Echinochloa oryzicola; test: Herbicidal activity against Echinochloa oryzicola under greenhouse condition assessed as growth inhibition at 500 g /ha measured after 6 days; format: functional, organism-based
[11] = tested on: Echinochloa oryzicola; test: Herbicidal activity against Echinochloa oryzicola grown in water-drained pot under greenhouse condition assessed as growth inhibition at 500 g /ha measured after 33 days; format: functional, organism-based
[12] = tested on: Echinochloa oryzicola; test: Herbicidal activity against Echinochloa oryzicola under greenhouse condition assessed as growth inhibition at 125 g /ha measured after 13 days; format: functional, organism-based
[13] = tested on: Cyperus serotinus; test: Herbicidal activity against Cyperus serotinus at 1000 g /ha treated at 1 to 1.5-leaf stage measured after 26 days by outdoor concrete pot test; format: functional, organism-based
[14] = tested on: Echinochloa oryzicola; test: Herbicidal activity against Echinochloa oryzicola under greenhouse condition assessed as growth inhibition at 250 g /ha measured after 27 days; format: functional, organism-based
[15] = tested on: Echinochloa oryzicola; test: Herbicidal activity against Echinochloa oryzicola grown in water-drained pot under greenhouse condition assessed as time duration of residual effect at 500 g /ha; format: functional
[16] = tested on: Echinochloa oryzicola; test: Herbicidal activity against Echinochloa oryzicola grown in water-drained pot under greenhouse condition assessed as growth inhibition at 500 g /ha measured after 13 days; format: functional, organism-based
[17] = tested on: Rotala indica; test: Herbicidal activity against Rotala indica at 250 g /ha treated at 1 to 2-pairs of leaf stage measured after 26 days by outdoor concrete pot test; format: functional, organism-based
[18] = tested on: Lindernia procumbens; test: Herbicidal activity against Lindernia procumbens at 1000 g /ha treated at 1 to 2-pairs of leaf stage measured after 26 days by outdoor concrete pot test; format: functional, organism-based
[19] = tested on: Cyperus serotinus; test: Herbicidal activity against Cyperus serotinus at 250 g /ha treated at 1 to 1.5-leaf stage measured after 26 days by outdoor concrete pot test; format: functional, organism-based
[20] = tested on: Echinochloa oryzicola; test: Herbicidal activity against Echinochloa oryzicola under greenhouse condition assessed as growth inhibition at 1000 g /ha measured after 6 days; format: functional, organism-based
[21] = tested on: Rotala indica; test: Herbicidal activity against Rotala indica at 1000 g /ha treated at 1 to 2-pairs of leaf stage measured after 26 days by outdoor concrete pot test; format: functional, organism-based
[22] = tested on: Echinochloa oryzicola; test: Herbicidal activity against Echinochloa oryzicola under greenhouse condition assessed as growth inhibition at 125 g /ha measured after 6 days; format: functional, organism-based
[23] = tested on: Sagittaria pygmaea; test: Herbicidal activity against Sagittaria pygmaea at 250 g /ha treated at 0.5 to 1-leaf stage measured after 26 days by outdoor concrete pot test; format: functional, organism-based
[24] = tested on: Echinochloa oryzicola; test: Herbicidal activity against Echinochloa oryzicola grown in water-drained pot under greenhouse condition assessed as growth inhibition at 125 g /ha measured after 13 days; format: functional, organism-based
[25] = tested on: Echinochloa oryzicola; test: Herbicidal activity against Echinochloa oryzicola at 1000 g /ha treated at 1.5 to 2-leaf stage measured after 26 days by outdoor concrete pot test; format: functional, organism-based
[26] = tested on: Echinochloa oryzicola; test: Herbicidal activity against Echinochloa oryzicola grown in water-drained pot under greenhouse condition assessed as growth inhibition at 500 g /ha measured after 20 days; format: functional, organism-based
[27] = tested on: Schoenoplectiella juncoides; test: Herbicidal activity against Schoenoplectiella juncoides at 1000 g /ha treated at 1.5 to 2.1-leaf stage measured after 26 days by outdoor concrete pot test; format: functional, organism-based
[28] = tested on: Elatine triandra; test: Herbicidal activity against Elatine triandra at 250 g /ha treated at 1 to 2-pairs of leaf stage measured after 26 days by outdoor concrete pot test; format: functional, organism-based
[29] = tested on: Echinochloa oryzicola; test: Herbicidal activity against Echinochloa oryzicola grown in water-drained pot under greenhouse condition assessed as growth inhibition at 125 g /ha measured after 27 days; format: functional, organism-based
[30] = tested on: Echinochloa oryzicola; test: Herbicidal activity against Echinochloa oryzicola grown in water-drained pot under greenhouse condition assessed as growth inhibition at 125 g /ha measured after 42 days; format: functional, organism-based
[31] = tested on: Echinochloa oryzicola; test: Herbicidal activity against Echinochloa oryzicola under greenhouse condition assessed as growth inhibition at 1000 g /ha measured after 33 days; format: functional, organism-based
[32] = tested on: Echinochloa oryzicola; test: Herbicidal activity against Echinochloa oryzicola under greenhouse condition assessed as growth inhibition at 1000 g /ha measured after 42 days; format: functional, organism-based
[33] = tested on: Schoenoplectiella juncoides; test: Herbicidal activity against Schoenoplectiella juncoides at 500 g /ha treated at 1.5 to 2.1-leaf stage measured after 26 days by outdoor concrete pot test; format: functional, organism-based
[34] = tested on: Echinochloa oryzicola; test: Herbicidal activity against Echinochloa oryzicola under greenhouse condition assessed as growth inhibition at 250 g /ha measured after 6 days; format: functional, organism-based
[35] = tested on: Echinochloa oryzicola; test: Herbicidal activity against Echinochloa oryzicola under greenhouse condition assessed as growth inhibition at 125 g /ha measured after 27 days; format: functional, organism-based
[36] = tested on: Echinochloa oryzicola; test: Herbicidal activity against Echinochloa oryzicola under greenhouse condition assessed as growth inhibition at 1000 g /ha measured after 13 days; format: functional, organism-based
[37] = tested on: Pontederia vaginalis; test: Herbicidal activity against Monochoria vaginalis at 1000 g /ha treated at 1.5 to 2-leaf stage measured after 26 days by outdoor concrete pot test; format: functional, organism-based
[38] = tested on: Echinochloa oryzicola; test: Herbicidal activity against Echinochloa oryzicola grown in water-drained pot under greenhouse condition assessed as growth inhibition at 125 g /ha measured after 6 days; format: functional, organism-based
[39] = tested on: Pontederia vaginalis; test: Herbicidal activity against Monochoria vaginalis at 500 g /ha treated at 1.5 to 2-leaf stage measured after 26 days by outdoor concrete pot test; format: functional, organism-based
[40] = tested on: Echinochloa oryzicola; test: Herbicidal activity against Echinochloa oryzicola under greenhouse condition assessed as growth inhibition at 250 g /ha measured after 42 days; format: functional, organism-based
[41] = tested on: Echinochloa oryzicola; test: Herbicidal activity against Echinochloa oryzicola grown in water-drained pot under greenhouse condition assessed as time duration of residual effect at 125 g /ha; format: functional
[42] = tested on: Echinochloa oryzicola; test: Herbicidal activity against Echinochloa oryzicola under greenhouse condition assessed as growth inhibition at 500 g /ha measured after 13 days; format: functional, organism-based
[43] = tested on: Echinochloa oryzicola; test: Herbicidal activity against Echinochloa oryzicola under greenhouse condition assessed as growth inhibition at 500 g /ha measured after 20 days; format: functional, organism-based
[44] = tested on: Echinochloa oryzicola; test: Herbicidal activity against Echinochloa oryzicola under greenhouse condition assessed as growth inhibition at 125 g /ha measured after 33 days; format: functional, organism-based
[45] = tested on: Echinochloa oryzicola; test: Herbicidal activity against Echinochloa oryzicola under greenhouse condition assessed as growth inhibition at 500 g /ha measured after 27 days; format: functional, organism-based

In the case of `CC1=C(c2ccccc2)C(=O)N(C(C)(C)c2nc3ccccc3s2)C1`, the “growth inhibition (GI)” value [1] is reported as “Active”, the MTD [2] is reported as 2.5 g/acre and the Time [3] is reported as >42 days. The “growth inhibition (GI)” value [4] was “inactive”, the MED [5] was 0.313 g/acre and the “growth inhibition (GI)” value [6] was “Active”. For the same compound, the “growth inhibition (GI)” value [7] was “inactive”, the “growth inhibition (GI)” value [8] was “Active” and the “growth inhibition (GI)” value [9] was “Active”. For the same compound, the “growth inhibition (GI)” value [10] was “Active”, the “growth inhibition (GI)” value [11] was “Active” and the “growth inhibition (GI)” value [12] was “Active”. The “growth inhibition (GI)” value [13] was “Active”, the “growth inhibition (GI)” value [14] was “inactive” and the Time [15] was >42 days. For the same compound, the “growth inhibition (GI)” value [16] was “Active”, the “growth inhibition (GI)” value [17] was “Active” and the “growth inhibition (GI)” value [18] was “Active”. For the same compound, the “growth inhibition (GI)” value [19] was “Active”, the “growth inhibition (GI)” value [20] was “Active” and the “growth inhibition (GI)” value [21] was “Active”. For the same compound, the “growth inhibition (GI)” value [22] was “Active”, the “growth inhibition (GI)” value [23] was “inactive” and the “growth inhibition (GI)” value [24] was “Active”. The “growth inhibition (GI)” value [25] was “Active”, the “growth inhibition (GI)” value [26] was “Active” and the “growth inhibition (GI)” value [27] was “inactive”. For the same compound, the “growth inhibition (GI)” value [28] was “Active”, the “growth inhibition (GI)” value [29] was “inactive” and the “growth inhibition (GI)” value [30] was “inactive”. The “growth inhibition (GI)” value [31] was “Active”, the “growth inhibition (GI)” value [32] was “Active” and the “growth inhibition (GI)” value [33] was “inactive”. For the same compound, the “growth inhibition (GI)” value [34] was “Active”, the “growth inhibition (GI)” value [35] was “Active” and the “growth inhibition (GI)” value [36] was “Active”. The “growth inhibition (GI)” value [37] was “Active”, the “growth inhibition (GI)” value [38] was “Active” and the “growth inhibition (GI)” value [39] was “Active”. The “growth inhibition (GI)” value [40] was “inactive”, the Time [41] was 27 days and the “growth inhibition (GI)” value [42] was “Active”. For the same compound, the “growth inhibition (GI)” value [43] was “Active”, the “growth inhibition (GI)” value [44] was “Active” and the “growth inhibition (GI)” value [45] was “Active”.

From ChEMBL document CHEMBL3046147, “Synthesis and Herbicidal Activity of 1-Arylalkyl-3-pyrrolin-2-one Derivatives” (J Pestic Sci, 2000)
